US20230070861A1, “COMPOSITIONS AND METHODS FOR TREATING HEPATITIS B” (priority 2019, published 2023)

System: HBV
Assay: HBV markers in HBV-infected primary human hepatocyte (PHH) co-culture
Type: cell-based
Protocol: A system comprising HBV-infected primary human hepatocytes (PHHs) was established by persistent HBV infection for over 30 days in a self-assembling, primary hepatocyte co-culture system (FIG. 12A). To generate the co-cultures system, primary human hepatocytes (PHH) (BioIVT) were plated at 350 k cells per well in a Collagen-Type I coated 24-well plate (Corning, 354408), and incubated at 37° C., 5% C02 to generate an adherent cell monolayer. 4 hrs post plating, plated hepatocytes were washed with CP medium (BioIVT) to remove any unadhered cells. 3T3-J2 murine embryonic fibroblasts (Kerafast (distributed from Howard Green (Harvard), Boston) were seeded at a ratio of 95% hepatocyte:5% fibroblast per well and cultured at 37° C., 5% C02 for an additional 12 hours to form co-cultures. Culture medium was replaced every 2 days (500 μL per well) for continued maintenance. Shown in FIG. 12C are images of transduced primary hepatocytes from two human hepatocyte donors, isolated from two different human livers. They were isolated, cryopreserved, and distributed for sale for research purposes by BioIVT (Maryland, US).
On the second day, post hepatocyte co-culture formation, lentivirus was added at an MOI 500 dropwise into culture medium per well. Co-cultures were transduced for 16 hours, prior to changing media for fresh CP medium (BioIVT). Culture medium was replaced every 2 days (500 μL per well) for continued maintenance. Protein expression occurs over 7 days period in hepatic co-cultures. At day 7 post transduction, co-cultures were transfected using lipofection based reagents co-formulated with gRNA and base-editor mRNA. Cells were lysed and harvested for gDNA 48 hours post transfection. FIG. 12B provides a timeline of the in vitro transduction schedule in either hepatocyte monolayers or hepatocyte co-cultures showing representative time points. Importantly, PHH cultures not treated with polyethylene glycol (PEG) during infection tend to have very low percentages of HBV infected PHH cells.
The infected cells, as gauged by HBV markers, respond to treatment as expected. […] The amounts of extracellular HBV DNA detected in the treated PHH cultures were similar to the amount observed in negative control cell cultures.
The experiments employed the approach using the HBV-infected PHH culture system and transfection of the PHH with components (base editors) of the base editor system as depicted in FIG. 19. Primary hepatocytes (PHH) co-cultures were infected with HBV in order to test antiviral efficacy of the base editors. The base editing reagents or components (base editor mRNA and synthetic gRNA) were transfected via lipofection twice over the course of two weeks. The first transfection was performed 3 days after infection to allow for complete formation of viral covalently closed circular DNA (cccDNA) at the time of the transfection. Extracellular parameters (HBsAg, HBeAg, and HBV DNA) were monitored over the course of the experiment and intracellular parameters (HBV DNA, viral RNA, and editing) were monitored at the end of the experiment. Briefly, on Day 0, PHH were infected with HBV (MOI=500). On Day 3 after HBV infection, the cells were transfected with base editing components, e.g., a BE and gRNA, or control(s). On Day 10, PHHs were subjected to another round of transfection. At the termination of the experiment, e.g., Day 17 or longer, e.g., Day 25, the PHH were lysed and extracellular amounts of HBsAg, HBeAg and HBV DNA were assessed. Also assessed were intracellular amounts of HBV DNA, viral RNA and the efficacy of base editing by the components of the base editor system versus control(s). Transfection details: RNA format, 800 ng total RNA per well in a 24 well plate (600 ng base editor+200 ng gRNA) transfected via lipofection (lipofectamin messengerMax, Thermofisher Scientific) according to the vendor's protocol. […]

[1] = 14-day PHH co-culture experiment, FIG. 20

Structure (SMILES): C=C1[C@H](CO)[C@@H](O)C[C@@H]1n1cnc2c(=O)[nH]c(N)nc21 [entecavir]
- HBV DNA [1]: reduces
- HBsAg [1]: does not influence
- pgRNA [1]: does not influence

Structure (SMILES): C[C@H](Cn1cnc2c(N)ncnc21)OCP(=O)(O)O [tenofovir]
- extracellular HBV DNA (compared to untreated HBV infected control cells, by day 7 post infection, FIG. 13B): significantly reduced
- HBV surface antigen (HBsAg) (relative to negative controls, FIG. 13C): lower levels
- intracellular HBV DNA (relative to negative controls, FIG. 13D): lower levels
- total HBV RNA (relative to negative controls, FIG. 13E): lower levels
- pre-genomic RNA (pgRNA) (relative to negative controls, FIG. 13F): lower levels
